Assay results reported in publication PMC2735267 (Neuropharmacology, 2009).
Where two headings read alike, the source gives them in different places.

Legend:
human α3β4-nAChR = details: Xenopus oocytes; ref Abin-Carriquiry et al., 2006; cited from earlier work
α7-nAChR = α7-nAChR (Mus musculus, UniProt P49582); assay: biochemical; type: binding, C57BL/6J mice
[1] = test system: [125I]epibatidine binding sites (β2*- and β4*-nAChR); set-up: species or system C57BL/6J mice; details: inferior colliculus, wild-type
β4*-nAChR [2] = biological target: β4*-nAChR (Mus musculus, UniProt Q8R493+Q8R4G9); assay: biochemical; type: binding, C57BL/6J mice
Sequence of β4*-nAChR (Mus musculus, UniProt Q8R493+Q8R4G9) (Q8R493 21-495): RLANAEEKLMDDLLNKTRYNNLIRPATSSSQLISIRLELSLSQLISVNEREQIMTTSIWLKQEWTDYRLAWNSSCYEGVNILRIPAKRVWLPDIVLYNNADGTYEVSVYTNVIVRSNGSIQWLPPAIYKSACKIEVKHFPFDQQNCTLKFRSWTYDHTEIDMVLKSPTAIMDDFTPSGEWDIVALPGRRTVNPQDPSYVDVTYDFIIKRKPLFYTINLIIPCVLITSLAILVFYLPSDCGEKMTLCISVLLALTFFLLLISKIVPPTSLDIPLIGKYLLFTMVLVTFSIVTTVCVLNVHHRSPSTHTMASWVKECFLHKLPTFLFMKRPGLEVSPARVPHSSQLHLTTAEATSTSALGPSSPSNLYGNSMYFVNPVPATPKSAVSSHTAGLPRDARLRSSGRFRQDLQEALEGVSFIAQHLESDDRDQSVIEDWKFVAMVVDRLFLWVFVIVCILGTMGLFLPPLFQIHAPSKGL
Sequence of β4*-nAChR (Mus musculus, UniProt Q8R493+Q8R4G9) (Q8R4G9 26-499): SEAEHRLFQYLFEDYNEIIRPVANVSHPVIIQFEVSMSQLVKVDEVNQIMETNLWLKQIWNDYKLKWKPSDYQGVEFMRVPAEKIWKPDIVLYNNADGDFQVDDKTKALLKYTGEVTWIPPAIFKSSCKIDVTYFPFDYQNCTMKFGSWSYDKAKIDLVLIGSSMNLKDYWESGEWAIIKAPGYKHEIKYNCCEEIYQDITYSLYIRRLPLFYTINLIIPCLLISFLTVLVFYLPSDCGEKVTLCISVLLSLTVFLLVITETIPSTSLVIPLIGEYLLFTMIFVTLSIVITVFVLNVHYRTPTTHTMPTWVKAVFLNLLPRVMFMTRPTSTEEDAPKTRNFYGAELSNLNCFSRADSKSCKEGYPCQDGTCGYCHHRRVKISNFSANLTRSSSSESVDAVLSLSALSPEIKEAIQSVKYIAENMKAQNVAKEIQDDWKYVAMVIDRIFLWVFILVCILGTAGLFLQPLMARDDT

β2*-nAChR [3] = biological target: β2*-nAChR (Mus musculus, UniProt O70174+Q9ERK7); assay: biochemical; type: binding, C57BL/6J mice
Sequence of β2*-nAChR (Mus musculus, UniProt O70174+Q9ERK7) (O70174 31-629): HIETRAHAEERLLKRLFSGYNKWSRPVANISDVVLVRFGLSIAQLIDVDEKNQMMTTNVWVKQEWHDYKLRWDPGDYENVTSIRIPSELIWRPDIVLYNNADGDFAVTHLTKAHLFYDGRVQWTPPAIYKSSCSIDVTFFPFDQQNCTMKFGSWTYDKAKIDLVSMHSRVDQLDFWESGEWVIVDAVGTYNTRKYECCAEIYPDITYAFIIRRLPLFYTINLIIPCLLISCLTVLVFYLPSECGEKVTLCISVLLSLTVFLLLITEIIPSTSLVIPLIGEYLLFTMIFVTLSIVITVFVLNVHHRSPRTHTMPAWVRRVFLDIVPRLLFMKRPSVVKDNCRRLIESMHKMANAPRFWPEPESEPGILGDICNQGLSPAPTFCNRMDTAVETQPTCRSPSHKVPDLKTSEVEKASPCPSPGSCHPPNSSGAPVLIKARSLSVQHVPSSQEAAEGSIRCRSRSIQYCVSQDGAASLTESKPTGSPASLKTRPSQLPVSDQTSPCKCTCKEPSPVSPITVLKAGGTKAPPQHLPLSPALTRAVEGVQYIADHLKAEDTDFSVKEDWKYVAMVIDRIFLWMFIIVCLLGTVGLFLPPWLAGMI
Sequence of β2*-nAChR (Mus musculus, UniProt O70174+Q9ERK7) (Q9ERK7 26-501): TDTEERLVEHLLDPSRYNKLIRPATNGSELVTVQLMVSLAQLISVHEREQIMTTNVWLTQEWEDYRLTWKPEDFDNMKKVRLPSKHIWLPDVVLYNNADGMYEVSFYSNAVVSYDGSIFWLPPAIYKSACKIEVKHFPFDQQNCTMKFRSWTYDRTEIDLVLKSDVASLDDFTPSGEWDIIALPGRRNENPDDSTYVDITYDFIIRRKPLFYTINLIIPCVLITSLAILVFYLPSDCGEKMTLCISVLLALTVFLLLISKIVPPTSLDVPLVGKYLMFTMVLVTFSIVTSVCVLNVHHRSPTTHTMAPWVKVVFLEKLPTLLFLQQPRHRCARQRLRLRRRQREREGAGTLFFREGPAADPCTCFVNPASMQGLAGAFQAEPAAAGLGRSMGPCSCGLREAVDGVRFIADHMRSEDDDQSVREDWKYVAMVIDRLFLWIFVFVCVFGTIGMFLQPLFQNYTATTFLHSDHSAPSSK

α7* receptors = details: read-out: Ki α7* receptors in rat brain; cited from earlier work
α4β2* receptors = details: read-out: Ki α4β2* receptors in rat brain; cited from earlier work
human α7 = details: read-out: Ki human α7; cited from earlier work
human α4β2 = details: read-out: Ki human α4β2; cited from earlier work
[4] = test system: [3H]noradrenaline release; details: read-out: EC50 [3H]noradrenaline release; cited from earlier work
[3H]dopamine release = read-out: EC50 [3H]dopamine release; cited from earlier work
human α7 nAChR = details: read-out: EC50 human α7 nAChR; cited from earlier work
α4β2-nAChR = details: cited from earlier work
β2*-nAChR [5] = details: ref Luetje and Patrick, 1991; cited from earlier work
β4*-nAChR [6] = details: ref Luetje and Patrick, 1991; cited from earlier work
[7] = rats; ref Sloan et al., 1988; cited from earlier work
DBA/2J mice = assay: 3-IC-induced hypothermia; type: in vivo, mouse
C57BL/6J mice = assay: 3-IC-induced hypothermia; type: in vivo, mouse
α7* nAChR binding sites = details: ten days 2 mg/kg/h nicotine, DBA/2J, ref Pauly et al., 1991, cited from earlier work

Sequence of α7-nAChR (P49582 23-502): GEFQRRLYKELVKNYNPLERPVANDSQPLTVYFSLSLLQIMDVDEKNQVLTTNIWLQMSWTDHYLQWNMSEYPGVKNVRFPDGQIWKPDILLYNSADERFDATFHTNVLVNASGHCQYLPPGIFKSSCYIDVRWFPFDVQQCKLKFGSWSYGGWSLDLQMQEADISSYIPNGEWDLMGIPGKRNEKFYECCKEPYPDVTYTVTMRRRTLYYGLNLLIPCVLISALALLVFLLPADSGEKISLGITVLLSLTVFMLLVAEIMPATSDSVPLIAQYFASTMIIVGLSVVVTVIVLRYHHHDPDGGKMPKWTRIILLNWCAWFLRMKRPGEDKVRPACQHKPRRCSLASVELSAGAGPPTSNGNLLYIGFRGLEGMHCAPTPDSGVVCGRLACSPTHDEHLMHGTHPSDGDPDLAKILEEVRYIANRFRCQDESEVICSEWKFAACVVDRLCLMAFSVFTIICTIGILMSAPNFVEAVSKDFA

O=c1c(Br)ccc2n1C[C@@H]1CNC[C@H]2C1 [3-bromocytisine]
agonist efficacy at human α3β4-nAChR (human α3β4-nAChR): full agonist

O=c1cccc2n1C[C@@H]1CNC[C@H]2C1 [cytisine, reference compound]
Ki (α7-nAChR): 1580 ± 180 nM | difference in affinity for the two [125I]epibatidine binding sites [1]: 60 fold | Ki (β4*-nAChR [2]): 9.7 ± 1.5 nM | Ki (β2*-nAChR [3]): 0.35 ± 0.01 nM | Ki (α7* receptors): 8000 nM | Ki (α4β2* receptors): 1.2 nM | Ki (human α7): 30000 nM | Ki (human α4β2): 0.6 nM | EC50 [4]: 7400 nM | EC50 ([3H]dopamine release): 280 nM | EC50 (human α7 nAChR): 83000 nM | EC50 (α4β2-nAChR; read-out: EC50 high agonist sensitive form of α4β2-nAChR): 5 nM | EC50 (α4β2-nAChR; read-out: EC50 low agonist sensitive form of α4β2-nAChR): 2000 nM | agonist efficacy at β2*-nAChR (β2*-nAChR [5]): partial agonist | agonist efficacy at β4*-nAChR (β4*-nAChR [6]): full agonist | half-life [7]: longer half-life than nicotine

C[N+](C)(C)CCCCCC[N+](C)(C)C [hexamethonium, reference compound]
effect of hexamethonium alone on body temperature (DBA/2J mice; 10 mg/kg ip, DBA/2J, vs saline): modest, but statistically significant, hypothermia | maximal 3-IC-induced hypothermia after hexamethonium pretreatment (DBA/2J mice; hexamethonium 10 mg/kg 10 min before 3-IC 0.2 mg/kg, DBA/2J): 5.66 ± 0.45 °C | blockade of 3-IC-induced hypothermia (DBA/2J mice; hexamethonium 10 mg/kg, DBA/2J): 33% | effect of hexamethonium alone on body temperature (C57BL/6J mice; 10 mg/kg ip, vs saline): did not affect body temperature | blockade of 3-IC-induced hypothermia (C57BL/6J mice; hexamethonium 10 mg/kg): 60% | maximal 3-IC-induced hypothermia after hexamethonium pretreatment (C57BL/6J mice; hexamethonium 10 mg/kg 10 min before 3-IC 0.2 mg/kg): 3.75 ± 0.67 °C

CNC1(C)C2CCC(C2)C1(C)C (stereo not drawn) [mecamylamine, reference compound]
effect of mecamylamine alone on body temperature (DBA/2J mice; 1 mg/kg ip, both mice strains): did not affect body temperature | time of maximal hypothermia after 3-IC injection, mecamylamine pretreated (DBA/2J mice; mecamylamine 1 mg/kg + 3-IC 0.2 mg/kg, DBA/2J): 20 min | 3-IC-induced hypothermia after mecamylamine pretreatment (DBA/2J mice; mecamylamine 1 mg/kg ip 10 min before 3-IC 0.2 mg/kg, DBA/2J): 1.13 ± 0.42 °C | blockade of 3-IC-induced hypothermia (C57BL/6J mice; mecamylamine 1 mg/kg before 3-IC 0.2 mg/kg): complete | 3-IC-induced hypothermia after mecamylamine pretreatment (C57BL/6J mice; mecamylamine 1 mg/kg ip 10 min before 3-IC 0.2 mg/kg): 0.13 ± 0.09 °C

CN1CCC[C@H]1c1cccnc1 [nicotine]
Ki (α7-nAChR): 930 ± 100 nM | difference in affinity for the two [125I]epibatidine binding sites [1]: 20 fold | increase in [125I]α-bungarotoxin binding sites (α7* nAChR binding sites; caudate putamen): 14.2% | increase in [125I]α-bungarotoxin binding sites (α7* nAChR binding sites; dentate gyrus): 12.6% | increase in [125I]α-bungarotoxin binding sites (α7* nAChR binding sites; hippocampus): 33% | increase in [125I]α-bungarotoxin binding sites (α7* nAChR binding sites; medial habenula): 22.6% | increase in [125I]α-bungarotoxin binding sites (α7* nAChR binding sites; substantia nigra): 25.6% | increase in [125I]α-bungarotoxin binding sites (α7* nAChR binding sites; zona incerta): 17.6%
